pIC50: −log10 of the molar value.
Target: EGFR Δ19del/T790M/C797S (Homo sapiens, UniProt P00533, T790M/C797S, form not given)
Assay: EGFR Δ19del/T790M/C797S kinase test (mobility shift, Caliper EZ Reader)
Format: biochemical
Conditions: kinase enzymatic activity, numeric values
Method: Mobility variation analysis was performed to determine the affinity of the compound for EGFRΔ19del/T790M/C797S. The enzymatic reaction scheme is as follows:
1. Prepare 1* kinase buffer as follows:
2. Preparation of compound concentration gradient: The test compound was tested with an initial concentration of 3000 nM or 100 nM, diluted in a 384 source plate to a 100% DMSO solution with 100-fold final concentration, and the compound is 3-fold diluted with Precision to 10 concentrations. A dispenser Echo 550 was used to transfer 250 nL 100-fold final concentration of the compound to the target plate OptiPlate-384F.
3. Prepare 2.5-fold final concentration of kinase solution with 1×Kinase buffer;
4. Add 10 μL of 2.5-fold final concentration of kinase solution to the compound well and the positive control well; add 10 μL of 1×Kinase buffer to the negative control well.
5. Centrifuge at 1000 rpm for 30 seconds, shake the reaction plate for well mixation, and then incubate at room temperature for 10 minutes.
6. Prepare a mixture of ATP and Kinase substrate at 5/3-fold final concentration with 1×Kinase buffer.
7. Add 15 μL mixture of 5/3-fold final concentration of ATP and substrate to start reaction.
8. Centrifuge the 384-well plate at 1000 rpm for 30 seconds, shake it well and then incubate it at room temperature for corresponding time.
9. Add 30 μL of stop detection solution to stop the kinase reaction, centrifuge at 1000 rpm for 30 seconds, shake it well.
10. Read conversion rate with Caliper EZ Reader.
% Inhibition=((Conversion%_max−Conversion%_sample)/(Conversion%_max−Conversion%_min))*100
Wherein: Conversion%_sample is the sample conversion rate reading; Conversion%_min: Mean value of negative control wells, representing the conversion rate reading of wells without enzymatic activity; Conversion%_max: Mean value of positive control wells, representing the conversion rate reading of wells without compound inhibition.
The dose-effect curve was fitted with concentration log value as X-axis and percentage inhibition rate as Y-axis. Log (inhibitor) vs. Response—Variable Slope of GraphPad Prism 5 was used to fit the dose-effect curve to obtain IC50 value of enzymatic activity for each compound.
The calculation formula is as Y=Bottom (Top−Bottom)/(1+10^((LogIC50−X)*HillSlope)).
As illustrated in examples, IC50 value is within the following range for the compound of the present invention: “A” represents “IC50≤1nM”; “B” represents “1 nM<IC50≤100nM”.

Chain of EGFR Δ19del/T790M/C797S (P00533 with tags, fused parts or gaps DEL746-750/T790M/C797S, form open): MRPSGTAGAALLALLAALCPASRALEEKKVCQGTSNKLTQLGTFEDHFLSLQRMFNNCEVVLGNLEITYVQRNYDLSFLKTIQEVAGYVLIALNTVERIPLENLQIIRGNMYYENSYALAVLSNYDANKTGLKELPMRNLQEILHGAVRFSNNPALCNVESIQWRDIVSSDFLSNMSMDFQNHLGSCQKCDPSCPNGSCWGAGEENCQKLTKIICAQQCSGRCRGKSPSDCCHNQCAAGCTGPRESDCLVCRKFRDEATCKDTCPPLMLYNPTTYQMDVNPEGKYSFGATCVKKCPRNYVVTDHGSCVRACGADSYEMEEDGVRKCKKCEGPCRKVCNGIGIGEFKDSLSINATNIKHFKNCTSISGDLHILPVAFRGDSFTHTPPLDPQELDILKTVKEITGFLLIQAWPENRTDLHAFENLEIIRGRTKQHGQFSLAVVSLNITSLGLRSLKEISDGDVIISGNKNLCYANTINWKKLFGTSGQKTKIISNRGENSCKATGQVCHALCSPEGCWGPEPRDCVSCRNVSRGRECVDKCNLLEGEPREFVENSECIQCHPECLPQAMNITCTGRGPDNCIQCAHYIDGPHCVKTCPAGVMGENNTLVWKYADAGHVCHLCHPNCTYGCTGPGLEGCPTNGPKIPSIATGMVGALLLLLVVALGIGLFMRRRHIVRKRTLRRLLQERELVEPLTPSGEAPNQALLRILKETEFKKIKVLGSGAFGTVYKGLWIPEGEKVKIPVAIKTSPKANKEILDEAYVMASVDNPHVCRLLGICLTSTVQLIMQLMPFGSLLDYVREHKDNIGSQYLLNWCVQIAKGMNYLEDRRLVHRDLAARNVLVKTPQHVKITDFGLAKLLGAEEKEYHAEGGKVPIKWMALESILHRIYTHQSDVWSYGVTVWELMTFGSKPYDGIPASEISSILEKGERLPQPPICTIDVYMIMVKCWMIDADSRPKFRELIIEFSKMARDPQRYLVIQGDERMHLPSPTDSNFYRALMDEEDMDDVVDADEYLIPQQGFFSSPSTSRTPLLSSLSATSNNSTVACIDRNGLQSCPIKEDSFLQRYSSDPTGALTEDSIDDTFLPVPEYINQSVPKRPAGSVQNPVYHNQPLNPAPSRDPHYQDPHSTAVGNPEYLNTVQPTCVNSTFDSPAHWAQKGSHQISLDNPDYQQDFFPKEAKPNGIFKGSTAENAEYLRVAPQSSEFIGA

- pIC50: 9.52
Compound: COc1cc(N2CCC(N3CCN(C)CC3)CC2)c(-c2cnn(C)c2)cc1Nc1ncc(Cl)c(Nc2ccc3nccnc3c2P(C)(C)=O)n1 [Compound 1, (6-((5-Chloro-2-((2-methoxy-5-(1-methyl-1hydro-pyrazol-4-yl)-4-(4-(4-methylpiperazine-1-yl)piperidin-1-yl)phenyl)amino)pyrimidin-4-yl)amino)quinoxalin-5-yl)dimethylphosphine oxide]

Source: US20220259235A1, “EGFR Inhibitor, Composition, and Preparation Method Therefor” (BETTA PHARMACEUTICALS CO., LTD, priority 2019, published 2022)
